Source: patent publication US4011238A, “2-Imidazolidione derivatives” (Gruppo Lepetit S.p.A., priority 1972, dated 1977)
Like-named read-outs stand apart in the source and are kept apart here.

What was measured:
[1] = acute toxicity (LD50), rat i.p.; details: in vivo, ip
[2] = test system: secondary conditioned response; test: CR2: inhibition of the secondary conditioned response; type: in vivo, rat; details: ip, read-out: CR2 (ED50)
Method: (§1) The symbols CR and CR2 relate, respectively, to the tests of inhibition of the primary and secondary conditioned response according to the method of L. Cook et al., Ann. […] The inhibition of apomorphine emesis test in the dog is carried out according to the method of G. Chen. et al., J. Pharm. Exptl.

[3] = test system: primary conditioned response; test: CR: inhibition of the primary conditioned response; type: in vivo, rat; details: ip, read-out: CR (ED50)
Method: as §1

[4] = test system: Apomorphine emesis; test: inhibition of apomorphine emesis test in the dog; type: in vivo; details: for ED50: Canis lupus familiaris, ip, read-out: Apomorphine emesis (ED50)
Method: as §1

[5] = test system: cardiovascular system; test: side effects on the cardiovascular system; type: in vivo; details: in comparison with chlorpromazine; at a dose level 5 to 10 times higher than that of chlorpromazine
[6] = test system: conditioned behavior; test: conditioned behavior; type: in vivo, rat; details: in comparison with chlorpromazine, in words
Method: as §1

[7] = rat, i.p., secondary conditioned response
[8] = rat, i.p., primary conditioned response

| Compound | LD50 [1] | ED50 [2, 7] | ED50 [3, 8] | ED50 ([4]; dog, i.p.) | anti-emetic effect ([4]; in comparison with chlorpromazine, in words) | side effects on the cardiovascular system [5] | activity on the conditioned behavior [6] | ED50 ([2]; Rattus norvegicus) | ED50 ([3]; Rattus norvegicus) | ED50 [4] |
| --- | --- | --- | --- | --- | --- | --- | --- | --- | --- | --- |
| CC1(C)CN(CCN2CCN(c3cccc(Cl)c3)C2=O)C1 [A, 1-(m-chlorophenyl)-3-[2-(3,3-dimethylazetidin-1-yl)ethyl]-2-imidazolidinone] | 200 mg/kg | 0.25 mg/kg | 0.5 mg/kg | < 0.05 mg/kg | more potent anti-emetic effect | much lower side effects on the cardiovascular system | more specific activity on the conditioned behavior | – | – | – |
| CN(C)CCCN1c2ccccc2Sc2ccc(Cl)cc21 [CPZ, chlorpromazine] | 120 mg/kg | – | – | – | – | – | – | 0.96 mg/kg | 3.95 mg/kg | 1 mg/kg |
| CN(C)CCN1CCN(c2cccc(Cl)c2)C1=O [Imidoline, 1-(m-chlorophenyl)-3-(2-dimethylaminoethyl)-2-imidazolidinone] | 200 mg/kg | 2.5 mg/kg | 5 to 10 mg/kg | 0.25 mg/kg | – | – | – | – | – | – |
